Experiment in all cases: DTP human tumour cell line panel, 48 h
In assay [1] the test system is SNB-19.
Assay [2] has as its system SF-539.
The test system of assay [3] is Hs-578T.
In assay [4] the test system is HT-29.
The test system of assay [5] is OVCAR-3.
Assay [6] deals with CAKI-1.
Assay [7] relates to SK-OV-3.
Assay [8] concerns OVCAR-5.
Assay [9] has as its system HCT-116.
The subject of assay [10] is SR.
Assay [11] relates to NCI-H522.
The test system of assay [12] is TK-10.
The subject of assay [13] is SNB-75.
In assay [14] the test system is BT-549.
Assay [15] deals with OVCAR-8.
Assay [16] concerns KM-20L2.
In assay [17] the test system is HCT-15.
Assay [18] relates to MOLT-4.
In assay [19] the test system is CCRF-CEM.
Assay [20] deals with SK-MEL-28.

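Five compound concentrations were applied to cells in 96-well plates for 48 hours; endpoints were derived by simple linear interpolation of the resulting dose-response curve. Abbreviation: GI50, concentration required for 50% inhibition of growth.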 Active and inactive are the calls of the source. Rule as the data show it: active = GI50 up to about 1.1 µM and inactive = higher.

What is called GI50 is the concentration at which growth is held to half of that of the control. Take `C[C@@H]1C[C@@H](O)[C@]2(O)O[C@@H]3C[C@@]4(C=O)[C@@H](CC[C@@H]5[C@@H]4CC[C@]4(C)[C@@H](C6=CC(=O)OC6)CC[C@]54O)C[C@H]3O[C@@H]2O1` [CALACTIN]: the GI50 in assay [1] is 21.9 nM (active); in assay [2], 5.81 nM (active); in [3], 20.2 nM (active); in [4], 21 nM (active); in [5], 1.69 nM (active); in assay [6], 10 nM (active). Moreover, the GI50 in assay [7] was 11.8 nM (active); in assay [8] it was 23.7 nM (active); in assay [9], 10.2 nM (active); in assay [10] it was 2.75 nM (active); in assay [11], 1.38 nM (active); in assay [12], 9.06 nM (active). The GI50 in [13] was 25.1 nM (active); in [14], 37.9 nM (active); in assay [15], 10.8 nM (active); in assay [16] it was 18.2 nM (active); in assay [17], 16.2 nM; in [18], 1.88 nM (active). In addition, the 50% growth inhibitory concentration (GI50) in assay [19] is 3.71 nM (active); in [20] it was 28.8 nM (active).
